Reference: patent US20090082438A1, “Coordination Compound Composed of Diaminocyclohexane Platinum (II) and Block Copolymer and Anti-Cancer Agent Comprising the Same” (priority 2005, published 2009)
Where a name gives a salt, the structure may show the parent alone.

Tests used:
[1] = tested on: mouse colon cancer Colon-26 cell line; test: Treating Test Example 2: anti-tumor and life-prolongation effect, i.v. administration to Colon-26-transplanted CDF1 mice; format: in vivo
[2] = Treating Test Example 2: toxicity (body weight change, deaths) in treated CDF1 mice; conditions: 10 mg/kg
Text: In this experiment, the treatment was started on the 9th day after the tumor transplantation.

Q: With `O=C1[O][Pt-2]2([NH2+]C3CCCC[C@H]3[NH2+]2)[O]C1=O` (stereo partly shown) [oxaliplatin, oxalate (1,2-diaminocyclohexane)platinum (II)] as the compound, how does the “life-prolonging effect (survival)” value ([1]; doses 2, 4 or 6 mg/kg oxaliplatin) read?
A: little life-prolonging effect

Q: And the “remarkable tumor growth-inhibiting effect” value ([1]; oxaliplatin up to 10 mg/kg, every third day, three times)?
A: not observed

Q: What about the “body weight reduction to” value [2] of the same compound?
A: 80%

Q: And the “deaths compared with untreated group (survival number)” value [2]?
A: earlier deaths than the untreated group
